According to paper PMC9090415, “Discovery of small molecule inhibitors of Plasmodium falciparum apicoplast DNA polymerase” (Journal of Enzyme Inhibition and Medicinal Chemistry, 2022):

Molecular target: P. falciparum apicoplast DNA polymerase (Pf-apPOL) (Plasmodium falciparum, UniProt Q8ILY1)
Assay: Fluorescence-based high-throughput DNA polymerase assay (molecular beacon), primary screen and dose-response
Assay type: biochemical
Protocol: The HT assay employs a molecular beacon, a stem-loop DNA template with a Cy3 dye and the Black Hole Quencher on the 3′ and 5′ ends of the DNA, respectively. Pf-apPOL concentration is based on a calculated absorptivity of ε280 = 56750 M^−1 cm^−1. Reactions were carried out at 25 °C, using Corning 3575 […] (well-volume, 20 µL). Assays testing for compound inhibition composed of reaction buffer (pH 7.9 in 50 mM potassium acetate, 20 mM Tris-acetate and 10 mM magnesium acetate), Pf-apPOL (20 nM), DNA substrate (20 nM), dNTPs (6 µM), and compound (10 µM in DMSO). The DNA and nucleotide substrates (dNTPs) were at concentrations of 20 nM and 6 µM, respectively, in the assay. Pf-apPOL was incubated in the reaction buffer with dNTPs and the compound of interest (10 µM, in the assay) at 25 °C for 10 min. The DNA substrate was then added and the reaction was allowed to proceed for 90 min at 25 °C.
Each assay plate contained 16 negative controls (no Pf-apPOL, DMSO present) and 16 positive controls (Pf-apPOL present, no DMSO). The fluorescence of each well was determined using a BioTek Synergy Neo fluorescence plate reader using excitation and emission wavelengths of 555 and 570 nm, respectively.
In the above, Min is the average of fluorescence emission of the negative controls (substrate only), Max the average fluorescence emission from the positive controls (enzyme + substrate), and Test the emission from the assays in the presence of compounds (enzyme + compound + substrates). […] […] The IC50 of each compound was determined using Equation (2): (2) IC50= Vmax/(1+ (I/IC50)^n)
In the above, n measures cooperativity, with n > 1 indicating synergistic binding of more than a single molecule of the compound.
To identify apPOL inhibitors we utilised our previously developed high-throughput DNA polymerase assay. The HT assay is based on a molecular beacon DNA template that forms a stem-loop with a Cy3 dye and the Black Hole Quencher on the 3′ and 5′ ends of the DNA, respectively. DNA polymerase activity extends an annealed primer through the stem region, displacing the fluorophore from the quencher, thereby increasing its fluorescence (Figure 1(A)). The assay accurately recapitulates the kinetic behaviour of apPOL, as measured through more conventional low-throughput gel-based assays. The Z′ factor for the assay described here was 0.9 across all plates (data not shown).
Figure 1. High-throughput screening. (A) The fluorescent-based DNA polymerase assay used to screen the compound libraries. The DNA template strand is a hairpin loop with a primer annealed to the loop. The 3’ end of the primer is 11 bases away from the 6 bp duplex. Strand displacement activity of the DNA polymerase separates the Cy3 dye from the Black hole quencher leading to an increase in fluorescent signal. (B) The high-throughput assay workflow. The DNA polymerase is incubated with […] compound for 10 min prior to addition of the hairpin substrate. The reaction is quenched at 3 different time points and the fluorescent signal is measured and % inhibition is determined using the provided equation.

[1] = supplemental file 2, sheet IC50 nontoxic compounds; Pf-apPOL

Chain of P. falciparum apicoplast DNA polymerase (Pf-apPOL) (Q8ILY1 entry or part of it): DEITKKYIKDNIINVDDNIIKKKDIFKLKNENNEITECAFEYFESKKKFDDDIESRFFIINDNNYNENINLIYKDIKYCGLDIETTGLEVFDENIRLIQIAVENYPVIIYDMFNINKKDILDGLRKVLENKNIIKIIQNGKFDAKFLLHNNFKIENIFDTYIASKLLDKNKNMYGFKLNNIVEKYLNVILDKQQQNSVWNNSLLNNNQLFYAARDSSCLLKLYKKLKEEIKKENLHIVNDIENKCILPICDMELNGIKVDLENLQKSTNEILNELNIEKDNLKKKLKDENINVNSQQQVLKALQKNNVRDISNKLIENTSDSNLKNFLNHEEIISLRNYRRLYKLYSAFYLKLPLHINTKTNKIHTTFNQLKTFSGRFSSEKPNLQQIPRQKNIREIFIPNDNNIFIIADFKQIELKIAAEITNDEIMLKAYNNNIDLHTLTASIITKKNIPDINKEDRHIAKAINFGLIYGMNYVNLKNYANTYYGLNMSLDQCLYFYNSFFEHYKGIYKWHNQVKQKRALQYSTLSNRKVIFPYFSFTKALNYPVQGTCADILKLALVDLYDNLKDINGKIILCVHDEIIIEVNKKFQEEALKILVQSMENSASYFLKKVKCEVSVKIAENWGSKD

## COC(=O)c1sc(-c2ccc(C(C)(C)C)cc2)cc1NC(=O)CCC(=O)O [Molecule 87]
[1]
  IC50: 8.86 µM

## CCCCOC(=O)CCCCCN1C(=O)C(=Cc2ccc(OC)cc2)SC1=S [Molecule 75, CCCCOC(=O)CCCCCN1C(=S)SC(=Cc2ccc(cc2)OC)C1=O]
DRC-1; 10'; concentration 2.5
  % inhibition Apo pol 10': -1.1804%
DRC-1; 10'; concentration 5
  % inhibition Apo pol 10': 1.705%
DRC-1; 10'; concentration 10
  % inhibition Apo pol 10': 11.988%
DRC-1; 10'; concentration 20
  % inhibition Apo pol 10': 12.7699%
DRC-1; 10'; concentration 40
  % inhibition Apo pol 10': 17.437%
DRC-1; 10'; concentration 80
  % inhibition Apo pol 10': 85.0535%
DRC-1; 90'; concentration 2.5
  % inhibition Apol 90': 3.6918%
DRC-1; 90'; concentration 5
  % inhibition Apol 90': 7.9015%
DRC-1; 90'; concentration 10
  % inhibition Apol 90': 19.2889%
DRC-1; 90'; concentration 20
  % inhibition Apol 90': 19.2951%
DRC-1; 90'; concentration 40
  % inhibition Apol 90': 23.7139%
DRC-1; 90'; concentration 80
  % inhibition Apol 90': 84.541%
DRC-1; 180'; concentration 2.5
  % inhibition apPOL 180': 6.465%
DRC-1; 180'; concentration 5
  % inhibition apPOL 180': 11.5498%
DRC-1; 180'; concentration 10
  % inhibition apPOL 180': 23.7615%
DRC-1; 180'; concentration 20
  % inhibition apPOL 180': 23.8231%
DRC-1; 180'; concentration 40
  % inhibition apPOL 180': 28.3946%
DRC-1; 180'; concentration 80
  % inhibition apPOL 180': 81.7032%
DRC-2; 5'; concentration 2.5
  % inhibition Apo pol 5': -2%
DRC-2; 5'; concentration 5
  % inhibition Apo pol 5': 3%
DRC-2; 5'; concentration 10
  % inhibition Apo pol 5': 20%
DRC-2; 5'; concentration 20
  % inhibition Apo pol 5': 30%
DRC-2; 5'; concentration 40
  % inhibition Apo pol 5': 45%
DRC-2; 5'; concentration 80
  % inhibition Apo pol 5': 46%
DRC-2; 40'; concentration 2.5
  % inhibition Apol 40': -0.735%
DRC-2; 40'; concentration 5
  % inhibition Apol 40': 5%
DRC-2; 40'; concentration 10
  % inhibition Apol 40': 24%
DRC-2; 40'; concentration 20
  % inhibition Apol 40': 42%
DRC-2; 40'; concentration 40
  % inhibition Apol 40': 66%
DRC-2; 40'; concentration 80
  % inhibition Apol 40': 69%
DRC-2; 90'; concentration 2.5
  % inhibition ApPOL 90': -1%
DRC-2; 90'; concentration 5
  % inhibition ApPOL 90': 6.48%
DRC-2; 90'; concentration 10
  % inhibition ApPOL 90': 25%
DRC-2; 90'; concentration 20
  % inhibition ApPOL 90': 43%
DRC-2; 90'; concentration 40
  % inhibition ApPOL 90': 71%
DRC-2; 90'; concentration 80
  % inhibition ApPOL 90': 74%
DRC-2; 180'; concentration 2.5
  % inhibition apPOL 180': -5%
DRC-2; 180'; concentration 5
  % inhibition apPOL 180': 0.541%
DRC-2; 180'; concentration 10
  % inhibition apPOL 180': 18%
DRC-2; 180'; concentration 20
  % inhibition apPOL 180': 40%
DRC-2; 180'; concentration 40
  % inhibition apPOL 180': 76%
DRC-2; 180'; concentration 80
  % inhibition apPOL 180': 79%
Primary screen value of the 186 hits; unit not given; 90 min, 10 µM
  DNA Pol: 27
Primary screen value, head "DNA Pol", unit not given; 90 min, 10 µM
  DNA Pol: 27

## Cc1ccc(CNC(=O)c2cnn3c(O)cc(CSc4ccc(Cl)cc4)nc23)cc1 [Molecule 99]
[1]
  IC50: 9.14 µM

## O=c1cc(-c2ccccc2)oc2c(O)c(O)ccc12 [Molecule 84, Oc1ccc2c(c1O)oc(cc2=O)c1ccccc1]
186 hits, value of the hit list (primary screen); unit not given; 90 min, 10 µM
  DNA Pol: 55
DRC-1; 10'; concentration 2.5
  % inhibition Apo pol 10': 14.1303%
DRC-1; 10'; concentration 5
  % inhibition Apo pol 10': 19.657%
DRC-1; 10'; concentration 10
  % inhibition Apo pol 10': 33.8432%
DRC-1; 10'; concentration 20
  % inhibition Apo pol 10': 42.9919%
DRC-1; 10'; concentration 40
  % inhibition Apo pol 10': 51.8731%
DRC-1; 10'; concentration 80
  % inhibition Apo pol 10': 57.9256%
DRC-1; 90'; concentration 2.5
  % inhibition Apol 90': 6.487%
DRC-1; 90'; concentration 5
  % inhibition Apol 90': 3.595%
DRC-1; 90'; concentration 10
  % inhibition Apol 90': 11.2996%
DRC-1; 90'; concentration 20
  % inhibition Apol 90': 16.5407%
DRC-1; 90'; concentration 40
  % inhibition Apol 90': 24.8113%
DRC-1; 90'; concentration 80
  % inhibition Apol 90': 29.7853%
DRC-1; 180'; concentration 2.5
  % inhibition apPOL 180': 1.7844%
DRC-1; 180'; concentration 5
  % inhibition apPOL 180': -2.772%
DRC-1; 180'; concentration 10
  % inhibition apPOL 180': 4.166%
DRC-1; 180'; concentration 20
  % inhibition apPOL 180': 7.699%
DRC-1; 180'; concentration 40
  % inhibition apPOL 180': 14.2771%
DRC-1; 180'; concentration 80
  % inhibition apPOL 180': 18.1576%
DRC-2, 5', concentration 2.5
  % inhibition Apo pol 5': 12%
DRC-2, 5', concentration 5
  % inhibition Apo pol 5': 18%
DRC-2, 5', concentration 10
  % inhibition Apo pol 5': 26%
DRC-2, 5', concentration 20
  % inhibition Apo pol 5': 32%
DRC-2, 5', concentration 40
  % inhibition Apo pol 5': 41%
DRC-2, 5', concentration 80
  % inhibition Apo pol 5': 42%
DRC-2, 40', concentration 2.5
  % inhibition Apol 40': 10%
DRC-2, 40', concentration 5
  % inhibition Apol 40': 13%
DRC-2, 40', concentration 10
  % inhibition Apol 40': 21%
DRC-2, 40', concentration 20
  % inhibition Apol 40': 23%
DRC-2, 40', concentration 40
  % inhibition Apol 40': 32%
DRC-2, 40', concentration 80
  % inhibition Apol 40': 36%
DRC-2, 90', concentration 2.5
  % inhibition ApPOL 90': 8%
DRC-2, 90', concentration 5
  % inhibition ApPOL 90': 10%
DRC-2, 90', concentration 10
  % inhibition ApPOL 90': 16%
DRC-2, 90', concentration 20
  % inhibition ApPOL 90': 17%
DRC-2, 90', concentration 40
  % inhibition ApPOL 90': 26%
DRC-2, 90', concentration 80
  % inhibition ApPOL 90': 32%
DRC-2, 180', concentration 2.5
  % inhibition apPOL 180': 1.74%
DRC-2, 180', concentration 5
  % inhibition apPOL 180': 3.63%
DRC-2, 180', concentration 10
  % inhibition apPOL 180': 7.41%
DRC-2, 180', concentration 20
  % inhibition apPOL 180': 6%
DRC-2, 180', concentration 40
  % inhibition apPOL 180': 16%
DRC-2, 180', concentration 80
  % inhibition apPOL 180': 23%
DRC-2; 5'; concentration 10
  % inhibition Apo pol 5': 26%
DRC-2; 5'; concentration 20
  % inhibition Apo pol 5': 32%
DRC-2; 40'; concentration 2.5
  % inhibition Apol 40': 10%
DRC-2; 40'; concentration 20
  % inhibition Apol 40': 23%
DRC-2; 40'; concentration 40
  % inhibition Apol 40': 32%
DRC-2; 90'; concentration 5
  % inhibition ApPOL 90': 10%
DRC-2; 90'; concentration 10
  % inhibition ApPOL 90': 16%
DRC-2; 90'; concentration 40
  % inhibition ApPOL 90': 26%
DRC-2; 90'; concentration 80
  % inhibition ApPOL 90': 32%
DRC-2; 180'; concentration 40
  % inhibition apPOL 180': 16%
DRC-2; 180'; concentration 80
  % inhibition apPOL 180': 23%
Primary screen value, 'DNA Pol' only; 90 min, 10 µM
  DNA Pol: 55

## C=CC1=C(C)c2cc3[nH]c(cc4nc(cc5[nH]c(cc1n2)c(C)c5CCC(=O)O)C(CCC(=O)O)=C4C)c(C)c3C=C [Molecule 91]
[1]
  IC50: < 2.5 µM
